Common to all, as to format: biochemical
The target of one assay is MAPKAP-K1b (Homo sapiens, UniProt P51812). The assay is described as follows: MAPKAP-K1b 33P kinase assay. The conditions noted are these: read-out: MAPKAP-K1b activity as percentage of control without inhibitor. The method, then:
(§1) All assays (25.5 μl) were carried out at room temperature (21° C.) and were linear with respect to time and enzyme concentrations under the conditions used. Assays were performed for 30 minutes except assays for LCK and PKB which were performed for 15 minutes using Multidrop Micro reagent dispensers (Thermo Electron Corporation, Waltham, Mass. 02454, USA) in a 96-well format. The concentration of […] [γ-^33P] ATP (800 cpm/pmol) in the assays was one of three concentrations (5, 20 or 50 μM) in order to be at or below Km for ATP for the enzyme. Assays were initiated with MgATP and stopped by addition of 5 μl of 0.5M orthophosphoric acid. Assays were then harvested onto P81 filterplates using a unifilter harvester (PerkinElmer, Boston, Mass. 02118, USA), with a wash buffer of 50 mM orthophosphoric acid. Filterplates were then air dried overnight. 10 μl of Microscint O was added per well prior to counting for radioactivity.
(§2) MKK1, JNK/SAPK1c, SAPK2a/p38, SAPK2b/p38β2, SAPK3/p38γ, SAPK4/p38δ, MAPK2/ERK2, MAPKAP-K1β, MAPKAP-K2, MSK1, PRAK, PKA, PKCα, PDK1, SGK, p70S6K, GSK3β, ROCK-II, PRK2, AMPK, CHK1, CHK2, CK2, PHK, LCK, were assayed according to Davies et al., (Davies, S. P., Reddy, H., Caivano, M. and Cohen, P. Biochem. J. 351, 95-105, 2000.
(§3) CSK and CDK2/cyclinA, were assayed according to Bain et al. (Bain J, McLauchlan H, Elliott M, Cohen P. Biochem J. 371, 199-204, 2003., except that ATP concentrations were either 5, 20 or 50 micromolar so that they were at or below the Km for ATP. The ATP concentrations used were as follows, 5 μM for assays of MKK1, SAPK3, SAPK4, GSK3β, PRK2 CK2 20 μm for assays of JNK, SAPK2β, MAPKAP-K2, MSK1, PRAK, PKA, […], PDK1, SGK, p70S6K, ROCK-II, CHK1, CHK2, CSK, CDK2, and 50 μM for assays of SAPK2a, MAPK2/ERK2, AMPK, LCK, PHK and MAPKAP-K1β.

For a further assay, the target named is SAPK2b/p38β2 (Homo sapiens, UniProt Q15759). The experiment in a line: SAPK2b/p38β2 33P kinase assay. The conditions noted are these: read-out: SAPK2b/p38β2 activity as percentage of control without inhibitor; for remaining activity at 1 µM: inhibitor 1 μM. Here is the method: as §1, with “Assays” for “All assays (25.5 μl) were carried out at room temperature (21° C.) and were linear with respect to time and enzyme concentrations under the conditions used. Assays”
as §2, §3

In another assay the target is PIM2 (Homo sapiens, UniProt Q9P1W9). The experiment in a line: PIM2 33P kinase assay. The settings on record: read-out: PIM2 activity as percentage of control without inhibitor. Here is the method:
as §1
The following kinases were assayed against the substrates indicated. Aurora B was assayed against the substrate peptide […] (300 μM), ERK8 and MST-2 were both assayed against MBP (0.33 mg/ml). IKKβ was assayed against the substrate peptide […] (300 μM), JNK3 was assayed against 3 μM ATF2[19-96]. MAPKAP-K3 and PKD1 were both assayed against […] (30 μM), MARK3 was assayed against CHKtide ([…]) substrate peptide (300 μM). MNK1 and MNK2 were both assayed against eIF4E protein (0.5 mg/ml). NEK7 was assayed against […] (300 μM), PIM2 was assayed against […] (300 μM), ΔPH PKBβ-S474D was assayed against Crosstide (30 μM), PLK1 was assayed against […] (300 μM). PRK2 was assayed against Long S6 peptide, […] (30 μM), RSK2 was assayed against […] (30 μM), SRC was assayed against cdc2 peptide, […], (300 μM) and SRPK1 was assayed against peptide […] (300 μM). All enzymes were diluted in 50 mM Tris/HCl pH 7.5, 0.1 mM EGTA, 1 mg/ml BSA, 0.1% β-mercaptoethanol buffer and assayed in an incubation containing 50 mM Tris/HCl pH7.5, 0.1 mM EGTA, 0.1% β-mercaptoethanol, CAMK-1 (5-20 mU) diluted in 50 mM Tris/HCl pH 7.5, 0.1 mM EGTA, 1 mg/ml BSA, 0.1% β-mercaptoethanol is assayed against substrate peptide […] in an incubation containing 50 mM Tris/HCl pH 7.5, 0.1 mM EGTA, 0.5 mM CaCl2, 0.3 μM calmodulin, 0.1% β-mereaptoethanol, 300 μM substrate peptide, 10 mM magnesium acetate and 0.05 mM [^33P-γ-ATP] (500-1000 cpm/pmole). EF2K (5-20 mU) diluted in 50 mM Hepes pH 6.6, 0.1% β-mercaptoethanol, 1 mg/ml BSA is assayed against a substrate peptide […] in an incubation containing 50 mM Hepes pH 6.6, 0.2 mM CaCl2, 0.3 μM Calmodulin, 0.05% b-mercaptoethanol, 300 μM substrate peptide, 10 mM magnesium acetate and 0.05 mM [^33P-γ-ATP] (500-1000 cpm/pmole).

Read-outs that look alike come from different tables or passages of the source.

PIM2, sequence (Q9P1W9 whole entry, species assumed): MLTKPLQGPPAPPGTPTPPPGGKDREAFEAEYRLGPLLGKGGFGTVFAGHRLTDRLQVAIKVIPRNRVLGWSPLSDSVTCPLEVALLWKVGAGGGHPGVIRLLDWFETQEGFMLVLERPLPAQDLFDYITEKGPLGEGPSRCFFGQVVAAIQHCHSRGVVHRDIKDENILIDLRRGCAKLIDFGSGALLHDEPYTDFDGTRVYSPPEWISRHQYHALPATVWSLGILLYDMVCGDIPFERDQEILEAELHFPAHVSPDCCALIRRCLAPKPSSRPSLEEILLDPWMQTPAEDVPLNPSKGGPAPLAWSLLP
SAPK2b/p38β2, sequence (Q15759 whole entry): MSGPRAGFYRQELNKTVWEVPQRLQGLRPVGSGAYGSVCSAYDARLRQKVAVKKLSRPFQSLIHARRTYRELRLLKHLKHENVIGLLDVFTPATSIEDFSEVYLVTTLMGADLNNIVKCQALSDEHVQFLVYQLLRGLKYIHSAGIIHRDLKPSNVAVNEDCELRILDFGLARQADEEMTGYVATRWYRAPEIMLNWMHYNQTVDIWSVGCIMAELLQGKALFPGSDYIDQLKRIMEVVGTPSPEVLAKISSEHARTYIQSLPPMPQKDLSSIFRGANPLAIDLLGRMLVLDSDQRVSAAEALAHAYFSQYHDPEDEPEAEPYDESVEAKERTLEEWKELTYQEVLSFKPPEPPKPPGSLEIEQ
MAPKAP-K1b, sequence (P51812 whole entry, species assumed): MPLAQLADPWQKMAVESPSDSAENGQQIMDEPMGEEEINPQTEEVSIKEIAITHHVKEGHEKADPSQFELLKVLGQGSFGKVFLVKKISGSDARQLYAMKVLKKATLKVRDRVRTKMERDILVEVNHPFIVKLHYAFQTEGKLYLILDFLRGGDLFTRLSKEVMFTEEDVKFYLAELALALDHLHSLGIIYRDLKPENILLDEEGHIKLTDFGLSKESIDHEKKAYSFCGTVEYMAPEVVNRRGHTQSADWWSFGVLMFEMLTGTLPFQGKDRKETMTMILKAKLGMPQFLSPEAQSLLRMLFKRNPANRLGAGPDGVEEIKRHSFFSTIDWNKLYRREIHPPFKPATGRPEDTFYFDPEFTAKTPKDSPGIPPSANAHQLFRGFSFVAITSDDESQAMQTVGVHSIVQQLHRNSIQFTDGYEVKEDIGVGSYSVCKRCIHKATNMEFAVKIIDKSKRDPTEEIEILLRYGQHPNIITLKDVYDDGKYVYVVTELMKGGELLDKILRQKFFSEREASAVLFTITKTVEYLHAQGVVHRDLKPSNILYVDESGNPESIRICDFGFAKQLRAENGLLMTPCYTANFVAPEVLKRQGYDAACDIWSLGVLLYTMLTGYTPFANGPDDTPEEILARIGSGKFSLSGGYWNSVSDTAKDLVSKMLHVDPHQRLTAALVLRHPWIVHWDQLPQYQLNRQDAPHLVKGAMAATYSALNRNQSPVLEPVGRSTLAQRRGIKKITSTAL

As for `COc1ccc2c3c([nH]c2c1)C(C)=NCC3` [Harmaline], the figures for the remaining activity at 1 µM at MAPKAP-K1b (inhibitor 1 μM), at SAPK2b/p38β2 and at PIM2 (inhibitor 1 μM) were 87%, 91% and 86%, respectively. For the same compound, the remaining activity at 10 µM was 80% at MAPKAP-K1b (inhibitor 10 μM), 93% at SAPK2b/p38β2 (inhibitor 10 μM) and 101% at PIM2 (inhibitor 10 μM).
Consider `CC1=NCCc2c1[nH]c1cc(O)ccc21` [Harmalol], for which the remaining activity at 1 µM amounted to 87% at MAPKAP-K1b (inhibitor 1 μM), 88% on SAPK2b/p38β2 and 90% at PIM2 (inhibitor 1 μM). Also, the remaining activity at 10 µM is 67% on MAPKAP-K1b (inhibitor 10 μM), 79% on SAPK2b/p38β2 (inhibitor 10 μM) and 57% on PIM2 (inhibitor 10 μM).
For `COc1ccc2c(c1)[nH]c1c(C)nccc12` [Harmine], the remaining activity at 1 µM at MAPKAP-K1b was found to be 89%; on PIM2, 77%. For the same compound, the remaining activity at 10 µM on MAPKAP-K1b came to 95%; at SAPK2b/p38β2, 87%; on PIM2 it was 41%.

For the origin of these results see patent US20100063085A1, “METHOD OF TREATING LEARNING IMPAIRMENT IN DOWN'S SYNDROME SUBJECTS” (University Court of The University of Dundee, priority 2008, published 2010).
